Article PMC12375970, “Probing the extent of importin‐α targeting of the TAF8 NLS by eliminating its cationic net‐charge” (Protein Science : A Publication of the Protein Society, 2025)
Ends that are not written are not given here.

How the values were obtained:
mImpα2 [1] = molecular target: T1, mImpα2 (Mus musculus, UniProt P52293); assay: Apparent NLS–mImpα2 complex stability monitored by CD (thermal denaturation); type: binding; conditions: for T°: CD thermal denaturation of mImpα2 in the presence of the ligand (mImpα2 alone 36.35); for ∆H°u (T°): CD thermal denaturation of mImpα2 with ligand, Van't Hoff method; for ΔG°u (25°C) / ΔG°u (37°C) / ΔΔG°u (25°C) / ΔΔG°u (37°C): CD; for ΔG°u (25°C) / ΔG°u (37°C): mImpα2 with ligand; for ΔΔG°u (25°C) / ΔΔG°u (37°C): relative to mImpα2 alone
T1 construct: MImpα2, residues 70–529, was co‐crystallized with each NLS analog; His-tag; made in house; host or cells: Escherichia coli BL21 (DE3)
Method: In the presence of TAF8 NLS, mImpα2 was stabilized, evidenced by the increase in temperature denaturation, shift in stability curves, and the reduction of the unfolded state (Figures S5a–c and 5a). The analogs also stabilized mImpα2, albeit to a lesser extent than TAF8 NLS.
CD measurements were conducted as previously described, including the determination of free energy using the Van't Hoff method (Jean‐Francois et al. [2003]). Fitting details are in Data S1.

mImpα2 [2] = molecular target: T1, mImpα2; assay: Microscale thermophoresis (MST); type: binding; conditions: for Hill Coeff.: Hill equation fit, mean ± SD of three experiments; for Kd: RED-NHS-labelled mImpα2 60 nM, NLS 250 μM–7.6 nM, 20 mM Tris–HCl, 127 mM NaCl, pH 8.0, 0.5% Tween-20, mean ± SD of three experiments, read-out: KD, 1-binding site fitted model
Method: Microscale thermophoresis (MST) experiments were conducted using the Monolith NT.115 (Nanotemper, Germany). The RED‐NHS 2nd generation Nanotemper labeling kit (MO‐L011) was used to label mImpα2 in 20 mM Tris–HCl and 127 mM NaCl at pH 8.0. Ten microliter of RED‐NHS‐reacted mImpα2 at 60 nM was titrated against a serial 1:1 dilution (250 μM–7.6 nM) of 10 μL of NLS containing 0.5% Tween‐20, and the mixture was pipetted into 16 MST capillaries contained in a single cartridge. The samples were processed using default settings and followed the manufacturer's protocol. The binding model fits are detailed in Data S1.
A two-binding site and Hill fitting model were also performed by using the following equation in GraphPad. The experiments were repeated three times and the calculated affinity values were reported as the mean equilibrium KD ± standard deviation.
One binding site equation [11]:
Y= Et+Lt+KD- (Et+Lt+KD)2- 4EtLt2Et
Where Lt is the total ligand concentration; protein concentration is Et; KD is the dissociation constant or binding affinity.
Two binding site equation [11]: […]
Where KD1and KD2are the dissociation constants for binding site 1 and 2.
Where L is known, and cooperativity is explicitly reported as the Hill coefficient (n) […].

Hela cells = assay: Fluorescence microscopy of nuclear localization of EGFP-NLS constructs, Hela; type: cell-based; conditions: Hela cells transfected with pCIneoEGFP constructs (EGFP fusions), 24 h post-transfection
Method: The plasmids, cloning, and cell culture transfection methods are described in Data S1. Cells were fixed with 3% paraformaldehyde (Electron Microscopy Sciences, Cat#15710) for 15 min at room temperature; then rinsed thoroughly with PBS. Nuclear staining was performed using 1 μg/mL DAPI (Sigma, Cat#D9542) in PBS. Following staining, cells were rinsed again with PBS and mounted with glass coverslips using Vectashield Antifade Mounting Medium (Vector Laboratories, Cat#H‐1000).
Fluorescence imaging was performed using a Zeiss AxioImager.M2 microscope (RRID:SCR_024706) equipped with a 40× EC Plan‐NeoFluar (1.3 NA; oil) objective, X‐Cite XYLIS LED illumination system, and a Zeiss AxioCam mRm CCD monochrome camera. Image acquisition and initial processing were performed using ZEN Blue software (RRID:SCR_013672), and additional analyses were performed using Fiji (ImageJ; RRID:SCR_002285). For each experimental condition, 15 randomly selected fields of view were imaged. Line overlay fluorescence intensity was quantified using the line profile tool in Fiji. A straight line across the entire cell length was drawn and centered on the nucleus. The “Plot Profile” function was used to extract pixel intensity values along the line. Three cells were analyzed per condition, and the data were presented as mean fluorescence intensity values. […]

[3] = Solubility of the synthesized peptides in water; conditions: synthesized peptide
importin‐α = conditions: 1:1 stoichiometry; ref Trowitzsch et al. [2015]; read-out: Dissociation constant (KD) by ITC; cited from earlier work
From the text: The general transcription factor TFIID is essential for RNA polymerase II transcription initiation in eukaryotic cells. This megadalton protein complex, composed of several TATA‐binding‐associated factors (TAFs), is assembled into a functional transcription factor in the nucleus (Thomas and Chiang [2006]). […] The Berger group recently elucidated how an essential TFIID subcomplex consisting of TAF2, TAF8, and TAF10 is assembled in the cytoplasm (Trowitzsch et al. [2015]). […] Trowitzsch et al. originally reported K D value for TAF8 NLS of ~10 μM with 1:1 stoichiometry (Trowitzsch et al. [2015]). […] In c ...

Row | Substance | T° (mImpα2 [1]) [°C] | ∆H°u (T°) (mImpα2 [1]) [kcal/mol] | ΔG°u (25°C) (mImpα2 [1]) [kcal/mol] | ΔG°u (37°C) (mImpα2 [1]) [kcal/mol] | ΔΔG°u (25°C) (mImpα2 [1]) [kcal/mol] | ΔΔG°u (37°C) (mImpα2 [1]) [kcal/mol] | Hill Coeff. (mImpα2 [2]) | Kd (mImpα2 [2]) [µM] | Nuclear localization (fluorescence) (Hela cells) | Soluble in H20 [3] | Kd (importin‐α) [µM]
1 | PVKKEKIDE [A4] | 37.15 | 87.9 | 3.2 | 0.1 | 0.7 | 0.3 | 0.64 ± 0.24 | 16.7 ± 1.96 | outperformed A3 in promoting nuclear localization | – | –
2 | EVKKPKIDE [A1] | – | – | – | – | – | – | – | 13.8 ± 2.31 | – | – | –
3 | PVKKPKIRR [TAF8] | 47.45 | 170 | 11.1 | 5.4 | 8.6 | 5.6 | 3.1 ± 0.39 | 1.21 ± 0.313 | – | Yes | ~10
4 | PVKKEKIEE [A2] | – | – | – | – | – | – | – | 15.9 ± 3.1 | – | Yes | –
5 | H-PEKKPKIDE-OH [A3] | 40.55 | 94.9 | 4.3 | 1.1 | 1.8 | 1.3 | 0.71 ± 0.30 | 10.6 ± 2.14 | – | – | –
